Structures can show the parent of a compound that is named as a salt.

Usually ED50 stands for the dose that gives a 50% effect, or the effect in half of the subjects.

For the experiment, the system named is tetrabenazine-induced sedation. Nature of the experiment: Antitetrabenazine test (prevention of tetrabenazine-induced sedation). The format is in vivo. The note with it: Mus musculus, ip; CDl male mice; i.p. as hydrochloride salt in saline 30 min before tetrabenazine hydrochloride 35 mg/kg i.p.; exploratory behavior scored 30 min later; read-out: ED50 (amount of the test compound required to reverse the tetrabenazine effects in 50 percent of the animals tested). How it is done: Prevention on of tetrabenazine-induced sedation was measured using a modification of the method of Vernier et al., First Hahnemann Symposium on Psychosomatic Medicine, ed. Nodim and Moyer, pub Lea and Febiger, Philadelphia. 1962.
Mice, groups of 12 CDl males each, were injected intraperitoneally (i.p.) with the hydrochloride salt of a compound of formula (I) in physiological saline solution or with physiological saline solution alone. Thirty minutes later each of the mice was injected (i.p.. 35 mg/kg) with a solution of tetrabenazine hydrochloride. Thirty minutes after the injection of tetrabenazine each mouse was examined for its level of exploratory behavior which was scored on a modification of the arbitrary scale defined by Vernier et al The result reported in Table I as the ED50 value is the amount of the test compound required to reverse the tetrabenazine effects in 50 percent of the animals tested.
Turning to `C[C@H]1CO[C@](O)(c2cc(F)cc(F)c2)[C@@H](C)N1.Cl` (relative stereo) [Example 1, (+-)-(2R*,3R*,5S*)-2-(3,5-Difluorophenyl)-3,5-dimethyl-2-morpholinol hydrochloride], the ED50 was 2 mg/kg.

Consider `C[C@@H]1CO[C@@](O)(c2cc(F)cc(F)c2)[C@H](C)N1C` (relative stereo) [Example 4, (+-)-(2R*,3R*,5S*)-2-(3,5-Difluorophenyl)-3,4,5,trimethyl-2-morpholinol hydrochloride], for which the ED50 is 3 mg/kg.

`C[C@@H]1CO[C@@](O)(c2cc(F)cc(F)c2)[C@H](C)N1.Cl` [Example 2, (2S,3S,5R)-2-(3,5-difluorophenyl)-3,5-dimethyl-2-morpholinol hydrochloride]: the 50% effective dose (ED50) was 5 mg/kg.

On to `C[C@@H]1CO[C@@](O)(c2cc(F)cc(F)c2)[C@H](C)N1C` [Example 3, (2S,3S,5R)-2-(3.5.Difluorophenyl)-3,4,5,trimethyl-2-morpholinol hydrochloride, one-quarter hydrate], for which the ED50 amounted to 0.6 mg/kg.

For the compound `CCN1[C@H](C)CO[C@@](O)(c2cc(F)cc(F)c2)[C@@H]1C` [Example 5, (2S,3S,5R)-2-(3,5-Difluorophenyl)-4-ethyl-3,5-dimethyl-2-morpholinol hydrochloride, monohydrate], the ED50 worked out at 3 mg/kg.
